ChEMBL document CHEMBL5532682, “Recent advances of tryptanthrin and its derivatives as potential anticancer agents” (RSC Med Chem, 2024)

Assays:
[1] = Antiproliferative activity against mouse MC3T3-E1 cells; type: toxicity, cell-based
[2] = tested on: A549; test: Antiproliferative activity against human A549 cells; type: functional, cell-based
[3] = tested on: MCF7; test: Antiproliferative activity against human MCF7 cells assessed as inhibition of cell growth; type: functional, cell-based
[4] = tested on: A549; test: Antiproliferative activity against human A549 cells assessed as inhibition of cell growth; type: functional, cell-based
[5] = tested on: HeLa; test: Antiproliferative activity against human HeLa cells assessed as inhibition of cell growth; type: functional, cell-based
[6] = tested on: HT-29; test: Antiproliferative activity against human HT-29 cells; type: functional, cell-based
[7] = tested on: PANC-1; test: Antiproliferative activity against human PANC-1 cells; type: functional, cell-based
[8] = tested on: MDA-MB-231; test: Antiproliferative activity against human MDA-MB-231 cells; type: functional, cell-based
[9] = Cytotoxicity activity against human HDF cells; type: toxicity, cell-based; details: HDF cells (NHDF)
[10] = tested on: A549; test: Antiproliferative activity against human A549 cells measured after 48 hrs by MTT assay; type: functional, cell-based; details: A549, 48 h
[11] = tested on: HCT-116; test: Antiproliferative activity against human HCT-116 cells measured after 48 hrs by MTT assay; type: functional, cell-based; details: HCT-116, 48 h
[12] = tested on: MDA-MB-231; test: Antiproliferative activity against human MDA-MB-231 cells measured after 48 hrs by MTT assay; type: functional, cell-based; details: MDA-MB-231, 48 h
[13] = tested on: A549; test: Antiproliferative activity against human A549 cells measured after 48 hrs; type: functional, cell-based; details: A549, 48 h
[14] = tested on: HCT-116; test: Antiproliferative activity against human HCT-116 cells measured after 48 hrs; type: functional, cell-based; details: HCT-116, 48 h
[15] = tested on: MDA-MB-231; test: Antiproliferative activity against human MDA-MB-231 cells measured after 48 hrs; type: functional, cell-based; details: MDA-MB-231, 48 h

## O=C1c2cc(F)ccc2-n2c1nc1cc(Cl)ccc1c2=O
[1]
  IC50: > 100 µM
[2]
  IC50: > 100 µM

## O=c1c2ccccc2nc2n1-c1ccccc1/C2=N/N=c1/scc(-c2ccc(O)cc2)n1-c1ccccc1
[3]
  IC50: 58.5 µM
[4]
  IC50: 38.3 µM
[5]
  IC50: 55.1 µM

## O=C1C2C=CC=CC2=NC2/C(=N\Nc3nc(-c4ccccc4)cs3)c3ccccc3N12 (stereo unspecified)
[3]
  IC50: 40.5 µM
[4]
  IC50: 52 µM
[5]
  IC50: 46 µM

## Cc1nn(Br)c2c1[C@@]1(C(C#N)=C(N)O2)c2ccccc2-n2c1nc1ccccc1c2=O
[6]
  IC50: 79.7 µM
[7]
  IC50: 48.2 µM
[8]
  IC50: 52.4 µM
[9]
  IC50: > 100 µM

## Cc1ccc2c(c1N1CCCCC1)C(=O)c1nc3ccccc3c(=O)n1-2
[10]
  IC50: > 100 µM
[11]
  IC50: > 100 µM
[12]
  IC50: > 100 µM

## O=C1C2C=CC=CC2=NC2/C(=N\Nc3nc(-c4ccc([N+](=O)[O-])cc4)cs3)c3ccccc3N12 (stereo unspecified)
[3]
  IC50: 59.1 µM
[4]
  IC50: 49.1 µM
[5]
  IC50: 67 µM

## O=C1c2c(ccc(F)c2N2CCN(CCO)CC2)-n2c1nc1ccccc1c2=O
[10]
  IC50: 41.4 µM
[11]
  IC50: > 100 µM
[12]
  IC50: > 100 µM
[13]
  IC50: 41.4 µM
[14]
  IC50: > 100 µM
[15]
  IC50: > 100 µM

## O=C1c2c(ccc(F)c2Cl)-n2c1nc1ccc(F)c(Cl)c1c2=O
[1]
  IC50: 68.3 µM
[2]
  IC50: 0.51 µM

## CCN(CC)c1cc2c(cc1Cl)C(=O)c1nc3ccccc3c(=O)n1-2
[13]
  IC50: 1.48 µM
[14]
  IC50: 1.29 µM
[15]
  IC50: 1.78 µM

## O=c1c2ccccc2nc2n1-c1ccccc1/C2=N/N=c1/scc(-c2ccccc2)n1-c1ccccc1
[3]
  IC50: 50.2 µM
[4]
  IC50: 51.6 µM
[5]
  IC50: 56.6 µM

## O=C1c2cc(Cl)ccc2-n2c1nc1cc(Cl)ccc1c2=O
[1]
  IC50: > 100 µM
[2]
  IC50: > 100 µM

## O=C1c2c(ccc(F)c2N2CCOCC2)-n2c1nc1ccccc1c2=O
[10]
  IC50: > 100 µM
[11]
  IC50: > 100 µM
[12]
  IC50: > 100 µM
[13]
  IC50: > 100 µM
[14]
  IC50: > 100 µM
[15]
  IC50: > 100 µM

## O=C1c2c(ccc(Cl)c2N2CCOCC2)-n2c1nc1ccccc1c2=O
[10]
  IC50: > 100 µM
[11]
  IC50: 10.7 µM
[12]
  IC50: > 100 µM

## O=c1c2ccccc2nc2n1-c1ccccc1/C2=N/N=c1/scc(-c2ccc(F)cc2)n1-c1ccccc1
[3]
  IC50: 60.1 µM
[4]
  IC50: 44.4 µM
[5]
  IC50: 52 µM

## CN1CCN(c2c(F)ccc3c2C(=O)c2nc4ccccc4c(=O)n2-3)CC1
[10]
  IC50: > 100 µM
[11]
  IC50: > 100 µM
[12]
  IC50: > 100 µM

## O=C1c2c(ccc(Cl)c2N2CCCCC2)-n2c1nc1ccccc1c2=O
[10]
  IC50: > 100 µM
[11]
  IC50: > 100 µM
[12]
  IC50: > 100 µM

## Cc1ccc2c(c1N(C)C)C(=O)c1nc3ccccc3c(=O)n1-2
[10]
  IC50: 98 µM
[11]
  IC50: > 100 µM
[12]
  IC50: 87.3 µM

## O=C1c2c(ccc(Cl)c2Cl)-n2c1nc1ccc(F)c(Cl)c1c2=O
[1]
  IC50: 67.2 µM
[2]
  IC50: > 100 µM

## O=C1c2cc(Cl)ccc2-n2c1nc1ccc(Cl)c(Cl)c1c2=O
[1]
  IC50: > 100 µM
[2]
  IC50: > 100 µM

## O=C1c2c(ccc(F)c2N2CCNCC2)-n2c1nc1ccccc1c2=O
[10]
  IC50: > 100 µM
[11]
  IC50: > 100 µM
[12]
  IC50: 65.8 µM

## Cc1ccc2c(c1N1CCN(C)CC1)C(=O)c1nc3ccccc3c(=O)n1-2
[10]
  IC50: 52.6 µM
[11]
  IC50: > 100 µM
[12]
  IC50: > 100 µM

## CCN(CC)c1c(Cl)ccc2c1C(=O)c1nc3ccccc3c(=O)n1-2
[10]
  IC50: 1.48 µM
[11]
  IC50: 1.29 µM
[12]
  IC50: 1.78 µM

## Cc1n[nH]c2c1[C@@]1(C(C#N)=C(N)O2)c2cc(-c3ccccc3)ccc2-n2c1nc1ccccc1c2=O
[6]
  IC50: 97.9 µM
[7]
  IC50: > 100 µM
[8]
  IC50: 72.2 µM
[9]
  IC50: > 100 µM

## O=C1c2cc(F)ccc2-n2c1nc1ccc(F)c(Cl)c1c2=O
[1]
  IC50: 89.7 µM
[2]
  IC50: > 100 µM

## O=C1c2c(ccc(Cl)c2N2CCNCC2)-n2c1nc1ccccc1c2=O
[10]
  IC50: 34.5 µM
[11]
  IC50: > 100 µM
[12]
  IC50: 31.6 µM

## O=c1c2ccccc2nc2n1-c1ccccc1/C2=N/N=c1/scc(-c2ccc([N+](=O)[O-])cc2)n1-c1ccccc1
[3]
  IC50: 43.1 µM
[4]
  IC50: 52.8 µM
[5]
  IC50: 67 µM

## O=C1c2cc(Cl)ccc2-n2c1nc1ccc(F)c(Cl)c1c2=O
[1]
  IC50: > 100 µM
[2]
  IC50: > 100 µM

## O=C1c2c(N3CCNCC3)cccc2-n2c1nc1ccccc1c2=O
[10]
  IC50: > 100 µM
[11]
  IC50: > 100 µM
[12]
  IC50: > 100 µM
[13]
  IC50: 13.7 µM
[14]
  IC50: 90 µM
[15]
  IC50: 56.1 µM

## O=C1c2c(ccc(F)c2N2CCN(c3ccccn3)CC2)-n2c1nc1ccccc1c2=O
[10]
  IC50: > 100 µM
[11]
  IC50: > 100 µM
[12]
  IC50: > 100 µM
[13]
  IC50: > 100 µM
[14]
  IC50: > 100 µM
[15]
  IC50: > 100 µM

## O=C1c2c(ccc(F)c2N2CCCCC2)-n2c1nc1ccccc1c2=O
[10]
  IC50: > 100 µM
[11]
  IC50: 64.2 µM
[12]
  IC50: > 100 µM
[13]
  IC50: > 100 µM
[14]
  IC50: 64.2 µM
[15]
  IC50: > 100 µM

## CC[C@@]1(O)C(=O)OCc2c1cc1n(c2=O)Cc2cc3ccccc3nc2-1 [CAMPTOTHECIN]
[2]
  IC50: 0.39 µM
